Measurements taken from article PMC11172314, “Towards Enhanced Tunability of Aqueous Biphasic Systems: Furthering the Grasp of Fluorinated Ionic Liquids in the Purification of Proteins” (International Journal of Molecular Sciences, 2024).
Where two headings read alike, the source gives them in different places.

Experiments:
FITC-Lys (lysozyme) = target: T1, FITC-Lys (lysozyme) (Gallus gallus, UniProt P00698); assay: Microscale thermophoresis (MST) binding of ABS phase-forming components to FITC-labeled lysozyme; parameters: species or system chicken; conditions: FITC-Lys 0.41 μM, 25 °C
T1 construct: Lyophilized lysozyme from chicken egg white, ≥90% purity; purchased Millipore (Darmstadt, Germany); host or cells: chicken egg white (natural source)
Protocol: Usually, in the labeling process, the position of dye is statistically distributed, and one amine per protein is labeled. […] The four ABS phase-forming components, [ N1112(OH) ][H2PO4] […] (FILs), and [C4C1Im][CF3SO3] […] In each run of MST, a maximum concentration of ligand was selected and consecutively diluted in sixteen capillaries.
Binding studies were conducted through microscale thermophoresis measurements of dye-labeled lysozyme. […] MST tests were conducted in a monolith NT.115 (blue/red) in accordance with the Nano Temper Technologies methodology. Medium MST power and 20% LED power (nano-blue) were set as the instrument’s default settings. For each and every MST measurement, PBS buffer was used. […] For each ligand, a series of 16 1:1 dilutions was prepared using the same buffer, varying the starting ligand concentration from 15 to 400 mM. MST traces were recorded using the standard parameters: 5 s MST power off, 30 s MST power on, and 5 s MST power off. Three independently conducted pipetted experiments’ data were examined using NanoTemper Technologies’ MO. Affinity Analysis program, version 2.3.

lysozyme (Lys) [1] = target: T2, lysozyme (Lys) (Gallus gallus, UniProt P00698); assay: DSC thermal stability (Tm, ΔH) of lysozyme in water, component solutions and ABS phases; parameters: species or system chicken; conditions: for Lys Tm / Lys ∆H: 1.0 mg/mL Lys
T2 construct: Lyophilized lysozyme from chicken egg white, ≥90% purity; purchased Millipore (Darmstadt, Germany); host or cells: chicken egg white (natural source)
Source text: Differential scanning calorimetry (DSC) measurements (Section 3) were used to determine the melting temperature ( Tm ) and enthalpy ( Δ H) of lysozyme, at which both the folded and unfolded states coexist at equilibrium. DSC outputs, thermal transitions at the nanoscale level, allow to analyze alterations on proteins structure and stability, providing sharp perceptions of the factors affecting stability, as well as of the folding and unfolding processes. […] (DSC curve depicted in Figure S16 of Supplementary Materials).
FIL (BP#8, BP#10, BP#11, and BP#12). […] For the system based on [C4C1Im][CF3SO3]
The thermal stability of lysozyme was analyzed in water, ABS phase-forming compounds aqueous solutions, and partition ABS phases. […] Partition lysozyme on each phase from the prepared biphasic points as well as recovered protein from the FIL-rich phase were also addressed for a selection of studied systems listed in Table 1. We acquired thermograms using a TA^TM Nano DSC from TA Instruments. All scans were conducted in a 300 μ L capillary cell through a temperature ramp from 20 to 90 °C at a heating rate of 1 °C/min and 3 atm pressure. All samples were degassed for 7 min at 20 °C, with the exception of FIL-containing samples owing to their surfactant properties. After subtracting the polynomial fit baselines, raw thermogram curve data were fitted with the TwoStateScaled model using NanoAnalyze TA Instruments software, version 3.12, to determine the protein thermal transition temperatures in each sample. During nanoDSC scans, Δ H and Δ S were obtained and utilized to determine Δ G ( Δ G = Δ H − T Δ S).

lysozyme (Lys) [2] = target: T2, lysozyme (Lys); assay: Far-UV CD secondary structure content of lysozyme (K2D deconvolution); parameters: species or system chicken; Lys α-helix content / Lys β-sheet content / Lys random coil content / α-helix content / β-sheet content / Random coil content: unit not given here; conditions: 25 °C; for Lys random coil content / Lys α-helix content / Lys β-sheet content: 1.0 mg/ml Lys
Protocol: Circular dichroism (CD) spectroscopy is broadly applied to assess the secondary structure of proteins because different structural elements have characteristic CD spectra. […] For [C4C1Im][CF3SO3] (mere fluoro-containing IL), the structural content was estimated for the concentration range (0.1–200 mM). […] FIL and [ N1112(OH) ][H2PO4] […] No substantial protein structural modification upon the ABS phase-forming component addition was verified.
Circular dichroism (CD) spectra were collected in a 10 mm quartz cuvette and a Chirascan spectropolarimeter (Applied Photophysics, Leatherhead, UK) at room temperature. All CD spectra were recorded in far-UV 190 to 260 nm at scan rates of 50 nm/min, 4 accumulations, and a response time of 3 s. Each CD experiment involved the acquisition and combination of two distinct duplicates. […] Spectral deconvolution was carried out with Dichroweb using the K2D algorithm.

lysozyme (Lys) [3] = target: T2, lysozyme (Lys); parameters: method as in PMID 28478279, PMID 17406547; conditions: cited from earlier work
[4] = cited from earlier work
lysozyme (Lys) [5] = target: T2, lysozyme (Lys); assay: Intrinsic (tryptophan) fluorescence of lysozyme; parameters: species or system chicken; conditions: 0.2 mg/mL Lys, excitation 295 nm, component 0.1–800 mM, 25 °C
Source text: (FIL), [C4C1Im][CF3SO3] (mere fluoro-containing IL), and [ N1112(OH) ][H2PO4] (globular protein stabilizer). […] Even though large changes in protein conformation can modify the intensity of tyrosine and phenylalanine fluorescence signals, their low extinction coefficients and quantum yields, as well as their relative lower sensitivity to environmental changes, make them a less appealing candidate. Tryptophan is frequently found concealed in the hydrophobic core of proteins due to its aromatic nature. […] The tryptophan release energy is particularly sensitive to the polarity (and dynamics) of the environment because the excited-state dipole moment is quite large. Reactions to denaturation, substrate binding, subunit association, and conformational transitions create variations in the tryptophan emission spectra. The spectrum shift generally known as blue shift, a shift of the maximum emission towards smaller wavelengths, denotes that the aromatic residue is buried in the native structure of the protein [67]. […] Furthermore, the amount of exposure of the fluorophores to the solvent is associated with the increase or decrease in the intensity of the emission spectrum. […] [C4C1Im][CF3SO3] and [ N1112(OH) ][H2PO4] […] Variations in lysozyme spectra are caused by ligand-induced changes in the microenvironment of tryptophan residues, either by shifting the maximum peak wavelength (blue or red shift) or by altering peak intensities. These changes can be used as a measure of the effect of the ABS phase-forming components on protein folding and unfolding.
Intrinsic fluorescence spectroscopy measurements of lysozyme’s tryptophan residues were carried out on a Spex Horiba Jobyin Yvon spectrofluorometer (HORIBA Jobin Yvon, France) using a 10 mm path length quartz cuvette. […] The excitation and emission slit widths of 2 nm were used for all the measurements. Maximum fluorescence values were attained as the average of three measurements.

[6] = parameters: method as in earlier work; conditions: aqueous solution, 25 °C, conductometry; ref 21 (supplement ref 1); cited from earlier work
[7] = max. conc. (first capillary) in monomer range: below 1st CAC for FILs, ]0, 100] mM for non-aggregating ligands

T1 sequence (P00698 19-147): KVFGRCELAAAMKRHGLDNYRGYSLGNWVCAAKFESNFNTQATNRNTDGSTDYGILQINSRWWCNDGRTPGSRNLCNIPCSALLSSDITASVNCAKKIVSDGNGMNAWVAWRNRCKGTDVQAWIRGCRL
T2 sequence (P00698 19-147): as above

Row | Compound | Kd (FITC-Lys (lysozyme); [7]) | Lys Tm (lysozyme (Lys) [1]; 0.1 mM component in water) [°C] | Lys ∆H (lysozyme (Lys) [1]; 0.1 mM component in water) [kcal/mol] | Lys Tm (lysozyme (Lys) [1]; 1 mM component in water) [°C] | Lys ∆H (lysozyme (Lys) [1]; 1 mM component in water) [kcal/mol] | Lys Tm (lysozyme (Lys) [1]; 5 mM component in water) [°C] | Lys ∆H (lysozyme (Lys) [1]; 5 mM component in water) [kcal/mol] | Lys Tm (lysozyme (Lys) [1]; 10 mM component in water) [°C] | Lys ∆H (lysozyme (Lys) [1]; 10 mM component in water) [kcal/mol] | Lys random coil content (lysozyme (Lys) [2]; 0.1 mM component) | Lys α-helix content (lysozyme (Lys) [2]; 0.1 mM component) | Lys β-sheet content (lysozyme (Lys) [2]; 0.1 mM component) | Lys random coil content (lysozyme (Lys) [2]; 1 mM component) | Lys α-helix content (lysozyme (Lys) [2]; 1 mM component) | Lys β-sheet content (lysozyme (Lys) [2]; 1 mM component) | Lys random coil content (lysozyme (Lys) [2]; 5 mM component) | Lys α-helix content (lysozyme (Lys) [2]; 5 mM component) | Lys β-sheet content (lysozyme (Lys) [2]; 5 mM component) | Lys random coil content (lysozyme (Lys) [2]; 25 mM component) | Lys α-helix content (lysozyme (Lys) [2]; 25 mM component) | further results
1 | O=S(=O)(O)C(F)(F)C(F)(F)C(F)(F)C(F)(F)F [[N1112(OH) ][C4F9SO3]] | – | – | – | – | – | – | – | – | – | – | – | – | – | – | – | – | – | – | – | – | Kd (FITC-Lys (lysozyme); max. conc. (first capillary) in 1st CAC range ([14.4, 34.48[ or [16.02, 35.17[ mM), read-out: Kd): 6.05 ± 1.67 mM; Kd (FITC-Lys (lysozyme); max. conc. (first capillary) in 2nd CAC range ([34.48, 76.54[ or [35.17, 185.65[ mM), read-out: Kd): 6.25 ± 1.47 mM
2 | Lys: lysozyme from chicken egg white (muramidase, EC 3.2.1.17), 14 kDa globular protein used as protein model | – | – | – | – | – | – | – | – | – | – | – | – | – | – | – | – | – | – | – | – | Tm (lysozyme (Lys) [1]; 0.5 mg/ml Lys in water): 69.26±0.031 °C; ∆H (lysozyme (Lys) [1]; 1.0 mg/mL Lys in water): 118 kcal/mol; Tm (lysozyme (Lys) [1]; 3.0 mg/ml Lys in water): 73.85±0.005 °C; α-helix, secondary structure prediction (lysozyme (Lys) [2]; 1.0 mg/mL Lys in water): 29%; β-strand, secondary structure prediction (lysozyme (Lys) [2]; 1.0 mg/mL Lys in water): 14%; Random coil content (lysozyme (Lys) [2]; 1.0 mg/ml Lys in water (0 mM)): 0.57; α-helix content (lysozyme (Lys) [2]; 1.0 mg/ml Lys in water (0 mM)): 0.29; β-sheet content (lysozyme (Lys) [2]; 1.0 mg/ml Lys in water (0 mM)): 0.14; β-strand, analysis based on various methods (lysozyme (Lys) [3]): ≈ 19%; isoelectric point [4]: around 11.0
3 | C[N+](C)(C)CCO.C[N+](C)(C)CCO.O=P([O-])(O)O.O=P([O-])(O)O [[N1112(OH) ][H2PO4], Choline ((2-hydroxyethyl)trimethylammonium) dihydrogen phosphate] | no binding detected | 77.10 | 134.8 | 77.11 | 132.5 | 76.70 | 142.8 | 77.06 | 137.8 | 0.56 | 0.29 | 0.15 | 0.58 | 0.28 | 0.14 | 0.56 | 0.25 | 0.18 | 0.57 | 0.24 | Lys β-sheet content (lysozyme (Lys) [2]; 25 mM component): 0.2; Lys fluorescence emission intensity with increasing component concentration (lysozyme (Lys) [5]): reduction in fluorescence emission intensity; Lys maximum emission wavelength with increasing component concentration (lysozyme (Lys) [5]): remains constant
4 | C[N+](C)(C)CCO.O=S(=O)([O-])C(F)(F)C(F)(F)C(F)(F)C(F)(F)F [[N1112(OH) ][C4F9SO3]] | no binding detected | 77.15 | 136.3 | 76.65 | 127.7 | 75.19 | 123 | 74.28 | 134 | 0.57 | 0.28 | 0.15 | 0.58 | 0.28 | 0.14 | 0.56 | 0.25 | 0.19 | 0.57 | 0.24 | Lys Tm (lysozyme (Lys) [1]; 25 mM component in water, several transitions listed singly, listed as [N1112(OH)][C4F9SO3]): 83.98 °C; Lys β-sheet content (lysozyme (Lys) [2]; 25 mM component): 0.2; 1st CAC [6]: 16.02 mM; 2nd CAC [6]: 35.17 mM; 3rd CAC [6]: 185.65 mM
